Results on 1 compound are retold here after patent US20240293387A1, “Methods of Treating Fabry Disease in Pediatric Patients” (Amicus Therapeutics, Inc., priority 2021, published 2024).

Series [1] can be described thus: AT1001-020 Stage 1 pharmacokinetics (sparse plasma sampling, LC-MS/MS, popPK). The format is in vivo, human. On the procedure: Migalastat levels can be measured via methods known in the art. For example, if measuring migalastat from tissue samples, tissue aliquots may be homogenized (7 μL water per 1 mg tissue) using a homogenizer (e.g., FastPrep-24 from MP Biomedical, Irvine, CA). Microcentrifuge tubes containing 100 μl of the tissue homogenate or 50 μl of plasma may then be spiked with 500 ng/ml 13C d2-AT1001 HCl internal standard (manufactured by MDS Pharma Services). A 600 μl volume of 5 mM HCl in 95/5 MeOH:H2O can then be added and the tubes vortexed for 2 minutes, followed by centrifugation at 21000×g for 10 minutes at room temperature. […] After several wash steps and elution into a clean, 96-well plate, the extracts may be dried down under N2 and reconstituted with mobile phase A. Migalastat levels can then be determined by liquid chromatography-tandem mass spectroscopy (LC-MS/MS) (e.g., LC: Shimadzu; MS/MS: ABSciex API 5500 MS/MS). […] The following precursor ion->product ion transitions may be monitored: mass/charge (m/z) 164.1→m/z 80.1 for migalastat and m/z 167.1→m/z 83.1 for the internal standard. […] The ratio of the area under the curve for migalastat to that of the internal standard is then determined and final concentrations of migalastat in each sample calculated using the linear least squares fit equation applied to the calibration curve. […]
Plasma samples were analyzed using the LC-MS/MS method. […]

A short description of series [2]: Population PK (popPK) model of migalastat in adults (NONMEM, bootstrap). Set-up: species or system human. The note with it: for Typical V2/F, Estimate (% RSE): Fabry disease; for Typical V2/F, Estimate (% RSE) / Typical Q/F, Estimate (% RSE) / Typical V3/F, Estimate (% RSE): body weight ≥ 70 kg. On the procedure:
A population pharmacokinetics (popPK) model previously developed from healthy adult volunteers and adult patients with Fabry disease after oral migalastat administration. After pooling plasma concentration-time data from Phase I, II, and III studies of AT1001 administered orally in adults using a range of doses from 25 mg to 675 mg and regimens under fasting conditions. […] In contrast, other covariates such as sex, age, drug formulation (solution or suspension vs 25 mg capsule vs 150 mg capsule) were not statistically/clinically significant. Since renal function gradually increases from birth and reaches adult levels by the second year of life (Rubin 1949), there are no expected age-dependent changes in eGFR in the pediatric population 2 years and older than adults. Additionally, pediatric patients with Fabry disease usually have a normal renal function or may experience renal hyperfiltration (Hopkin 2008); therefore, weight-based dosing regimens, assuming that pediatrics have a normal renal function, were planned for the simulations in pediatric Fabry patients. NONMEM program was used to develop the population PK model of migalastat in adults using first-order conditional estimation with interaction (FOCE-I). Simulations were conducted using NONMEM to obtain plasma concentration-time; all graphical analyses were performed using R; noncompartmental analysis and pharmacokinetic parameters summaries were conducted using Phoenix WinNonlin. Bootstrapping and visual predictive checks (VPC)s were conducted using Perl-speaks-NONMEM (PsN) R packages of popED and mrgsolve were used in the optimal sampling strategy. […] The overall purpose of the model development was to come up with a model for pediatric extrapolation. […] Moreover, pediatric CLT/F values extrapolated from the non-renal model were higher than the overall CLT/F approach, resulting in higher pediatric doses for achieving equivalent exposures with adults which was a less conservative approach. Therefore, the overall CLT/F scaling approach is more conservative and was chosen for the final model, which is shown in Table 6. The estimated parameters from bootstrap (see Table 6) were nearly identical to those estimated from the original dataset. All parameters were estimated with adequate precision.

Bounds are passed on as bounds.

In the case of `OC[C@H]1NC[C@H](O)[C@@H](O)[C@H]1O` [migalastat, (2R,3S,4R,5S)-2-(hydroxymethyl) piperdine-3,4,5-triol], the “Cmax levels observed in the pediatric patients versus adults in study AT1001-011” value in series [1] (123 mg capsule QOD) is on record as “in line with the Cmax levels observed in adults patients”. The “Exposure in adults and adolescents weighing >45 kg (popPK)” value in series [1] (123 mg capsule q.o.d., adolescent patients (n=9)) was “comparable”. Further, in series [2] (Bootstrap), the “EGFR-related exponential index on CL/F, Estimate (% RSE)” value was 0.925 (5.25%);; the “Fractional Change in V2/F in subjects without Fabry disease (decrease in V2/F), Estimate (% RSE)” value was −0.305 (12.3%);; the “Fractional Change in total CL/F in subjects without Fabry disease (decrease in total CL/F), Estimate (% RSE)” value was −0.151 (23.5%);; the “Ka (intercept), Estimate (% RSE)” value is 0.256 (8.60%); h^−1. Besides, in series [2] (Bootstrap), the “Ka (slope), Estimate (% RSE)” value is on record as 0.282 (7.45%);; the “Lag time, Estimate (% RSE)” value is 0.176 (4.52%); h; the “Typical V2/F, Estimate (% RSE)” value is recorded as 69.7 (4.8%); L; the “Typical Q/F, Estimate (% RSE)” value is given as 1.01 (4.59%); L/h. Besides, in series [2] (Bootstrap), the “Typical V3/F, Estimate (% RSE)” value was 27.5 (11.9%); L. In series [2] (NONMEM), the “EGFR-related exponential index on CL/F, Estimate (% RSE)” value is given as 0.922 (5.64%);; the “Fractional Change in V2/F in subjects without Fabry disease (decrease in V2/F), Estimate (% RSE)” value is listed as −0.306 (12.8%);; the “Fractional Change in total CL/F in subjects without Fabry disease (decrease in total CL/F), Estimate (% RSE)” value is reported as 0.150 (24.9%);; the “Ka (intercept), Estimate (% RSE)” value is reported as 0.256 (9.41%); h^−1. In series [2] (NONMEM), the “Ka (slope), Estimate (% RSE)” value is listed as 0.284 (9.12%);; the “Lag time, Estimate (% RSE)” value was 0.175 (4.65%); h; the “Typical V2/F, Estimate (% RSE)” value is on record as 70.1 (5.29%); L; the “Typical Q/F, Estimate (% RSE)” value is reported as 1.00 (5.17%); L/h. Moreover, in series [2] (NONMEM), the “Typical V3/F, Estimate (% RSE)” value was 27.5 (11.7%); L. Also, in series [2] (body weights between 50 and 170 kg), the “Average difference in migalastat exposure with subject weight” value is on record as less than 2 fold. In addition, the “Time within which the drug is considered fairly fully absorbed” value in series [2] (oral, regardless of the absorption model chosen) fell in the range of 7 to 10 h.
